Results taken from patent publication US11357230B2, “Herbicidal amides” (FMC Corporation, priority 2017, dated 2022).

Tests used:
Type in all cases: in vivo
corn (Zea mays) = test: Test A postemergence, corn; settings: approximately 10 d
Excerpt: (§1) Seeds of plant species selected from barnyardgrass (Echinochloa crus-galli), kochia (Kochia scoparia), ragweed (common ragweed, Ambrosia elatior), ryegrass, Italian (Italian ryegrass, Lolium multiflorum), foxtail, green (green foxtail, Setaria viridis), and pigweed (Amaranthus retroflexus) were planted into a blend of loam soil and sand and treated preemergence with a directed soil spray using test chemicals formulated in a non-phytotoxic solvent mixture which included a surfactant. At the same time, plants selected from these weed species and also wheat (Triticum aestivum), corn (Zea mays), blackgrass (Alopecurus myosuroides), and galium (catchweed bedstraw, Galium aparine) were planted in pots containing the same blend of loam soil and sand and treated with postemergence applications of test chemicals formulated in the same manner. Plants ranged in height from 2 to 10 cm and were in the one- to two-leaf stage for the postemergence treatment. Treated plants and untreated controls were maintained in a greenhouse for approximately 10 d, after which time all treated plants were compared to untreated controls and visually evaluated for injury. Plant response ratings, summarized in Table A, are based on a 0 to 100 scale where 0 is no effect and 100 is complete control. A dash (-) response means no test result.

Foxtail, Giant [1] = test: Test A postemergence, giant foxtail; settings: approximately 10 d
[2] = test system: ducksalad (Heteranthera limosa); test: Test B flooded paddy test, ducksalad; settings: 250 g ai/ha, Flood (paddy water), 13 to 15 d
Method: (§2) Plant species in the flooded paddy test selected from rice (Oryza sativa), sedge, umbrella (small-flower umbrella sedge, Cyperus difformis), ducksalad (Heteranthera limosa), and barnyardgrass (Echinochloa crus-galli) were grown to the 2-leaf stage for testing. At time of treatment, test pots were flooded to 3 cm above the soil surface, treated by application of test compounds directly to the paddy water, and then maintained at that water depth for the duration of the test. Treated plants and controls were maintained in a greenhouse for 13 to 15 d, after which time all species were compared to controls and visually evaluated. Plant response ratings, summarized in Table B, are based on a scale of 0 to 100 where 0 is no effect and 100 is complete control. A dash (-) response means no test result.

rice (Oryza sativa) = test: Test B flooded paddy test, rice; settings: 250 g ai/ha, Flood (paddy water), 13 to 15 d
Method: as §2

[3] = test system: ryegrass, Italian (Italian ryegrass, Lolium multiflorum); test: Test A preemergence, Italian ryegrass; settings: approximately 10 d
Excerpt: as §1

[4] = test system: pigweed (Amaranthus retroflexus); test: Test A postemergence, pigweed; settings: approximately 10 d
Excerpt: as §1

[5] = test system: pigweed (Amaranthus retroflexus); test: Test A preemergence, pigweed; settings: approximately 10 d
Excerpt: as §1

[6] = test system: ragweed (common ragweed, Ambrosia elatior); test: Test A preemergence, ragweed; settings: approximately 10 d
Excerpt: as §1

[7] = test system: sedge, umbrella (small-flower umbrella sedge, Cyperus difformis); test: Test B flooded paddy test, umbrella sedge; settings: 250 g ai/ha, Flood (paddy water), 13 to 15 d
Method: as §2

[8] = test system: ragweed (common ragweed, Ambrosia elatior); test: Test A postemergence, ragweed; settings: approximately 10 d
Excerpt: as §1

[9] = test system: galium (catchweed bedstraw, Galium aparine); test: Test A postemergence, galium; settings: approximately 10 d
Excerpt: as §1

kochia (Kochia scoparia) [10] = test: Test A postemergence, kochia; settings: approximately 10 d
Excerpt: as §1

[11] = test system: barnyardgrass (Echinochloa crus-galli); test: Test B flooded paddy test, barnyardgrass; settings: 250 g ai/ha, Flood (paddy water), 13 to 15 d
Method: as §2

[12] = test system: barnyardgrass (Echinochloa crus-galli); test: Test A postemergence, barnyardgrass; settings: approximately 10 d
Excerpt: as §1

[13] = test system: blackgrass (Alopecurus myosuroides); test: Test A postemergence, blackgrass; settings: approximately 10 d
Excerpt: as §1

Foxtail, Giant [14] = test: Test A preemergence, giant foxtail; settings: approximately 10 d
[15] = test system: barnyardgrass (Echinochloa crus-galli); test: Test A preemergence, barnyardgrass; settings: approximately 10 d
Excerpt: as §1

[16] = test system: ryegrass, Italian (Italian ryegrass, Lolium multiflorum); test: Test A postemergence, Italian ryegrass; settings: approximately 10 d
Excerpt: as §1

[17] = test system: wheat (Triticum aestivum); test: Test A postemergence, wheat; settings: approximately 10 d
Excerpt: as §1

kochia (Kochia scoparia) [18] = test: Test A preemergence, kochia; settings: approximately 10 d
Excerpt: as §1

Row | SMILES | Plant response rating (0 to 100 scale, 0 is no effect, 100 is complete control) (corn (Zea mays); 31 g ai/ha) | Plant response rating (0 to 100 scale, 0 is no effect, 100 is complete control) (corn (Zea mays); 125 g ai/ha) | Plant response rating (0 to 100 scale, 0 is no effect, 100 is complete control) (Foxtail, Giant [1]; 31 g ai/ha) | Plant response rating (0 to 100 scale, 0 is no effect, 100 is complete control) (Foxtail, Giant [1]; 125 g ai/ha) | Plant response rating (scale of 0 to 100, 0 is no effect, 100 is complete control) [2] | Plant response rating (scale of 0 to 100, 0 is no effect, 100 is complete control) (rice (Oryza sativa)) | Plant response rating (0 to 100 scale, 0 is no effect, 100 is complete control) ([3]; 31 g ai/ha) | Plant response rating (0 to 100 scale, 0 is no effect, 100 is complete control) ([3]; 125 g ai/ha) | Plant response rating (0 to 100 scale, 0 is no effect, 100 is complete control) ([4]; 31 g ai/ha) | Plant response rating (0 to 100 scale, 0 is no effect, 100 is complete control) ([4]; 125 g ai/ha) | Plant response rating (0 to 100 scale, 0 is no effect, 100 is complete control) ([5]; 31 g ai/ha) | Plant response rating (0 to 100 scale, 0 is no effect, 100 is complete control) ([5]; 125 g ai/ha) | Plant response rating (0 to 100 scale, 0 is no effect, 100 is complete control) ([6]; 31 g ai/ha) | Plant response rating (0 to 100 scale, 0 is no effect, 100 is complete control) ([6]; 125 g ai/ha) | Plant response rating (scale of 0 to 100, 0 is no effect, 100 is complete control) [7] | Plant response rating (0 to 100 scale, 0 is no effect, 100 is complete control) ([8]; 31 g ai/ha) | Plant response rating (0 to 100 scale, 0 is no effect, 100 is complete control) ([8]; 125 g ai/ha) | Plant response rating (0 to 100 scale, 0 is no effect, 100 is complete control) ([9]; 31 g ai/ha) | Plant response rating (0 to 100 scale, 0 is no effect, 100 is complete control) ([9]; 125 g ai/ha) | Plant response rating (0 to 100 scale, 0 is no effect, 100 is complete control) (kochia (Kochia scoparia) [10]; 31 g ai/ha) | further results
1 | CN(C)N=C1[C@H](C(=O)Nc2cccc(F)c2F)[C@@H](c2ccc(C(F)(F)F)cc2)CN1C (relative stereo) [Compound 4] | 0 | 20 | 0 | 80 | 75 | 0 | 0 | 10 | 0 | 70 | 0 | 60 | 0 | 0 | 0 | 0 | 30 | 60 | 70 | 0 | Plant response rating (0 to 100 scale, 0 is no effect, 100 is complete control) (kochia (Kochia scoparia) [10]; 125 g ai/ha): 40; Plant response rating (scale of 0 to 100, 0 is no effect, 100 is complete control) [11]: 55; Plant response rating (0 to 100 scale, 0 is no effect, 100 is complete control) ([12]; 31 g ai/ha): 0; Plant response rating (0 to 100 scale, 0 is no effect, 100 is complete control) ([12]; 125 g ai/ha): 60; Plant response rating (0 to 100 scale, 0 is no effect, 100 is complete control) ([13]; 31 g ai/ha): 30; Plant response rating (0 to 100 scale, 0 is no effect, 100 is complete control) ([13]; 125 g ai/ha): 50; Plant response rating (0 to 100 scale, 0 is no effect, 100 is complete control) (Foxtail, Giant [14]; 31 g ai/ha): 50; Plant response rating (0 to 100 scale, 0 is no effect, 100 is complete control) (Foxtail, Giant [14]; 125 g ai/ha): 90; Plant response rating (0 to 100 scale, 0 is no effect, 100 is complete control) ([15]; 31 g ai/ha): 50; Plant response rating (0 to 100 scale, 0 is no effect, 100 is complete control) ([15]; 125 g ai/ha): 90; Plant response rating (0 to 100 scale, 0 is no effect, 100 is complete control) ([16]; 31 g ai/ha): 0; Plant response rating (0 to 100 scale, 0 is no effect, 100 is complete control) ([16]; 125 g ai/ha): 20; Plant response rating (0 to 100 scale, 0 is no effect, 100 is complete control) ([17]; 31 g ai/ha): 0; Plant response rating (0 to 100 scale, 0 is no effect, 100 is complete control) ([17]; 125 g ai/ha): 20; Plant response rating (0 to 100 scale, 0 is no effect, 100 is complete control) (kochia (Kochia scoparia) [18]; 31 g ai/ha): 0; Plant response rating (0 to 100 scale, 0 is no effect, 100 is complete control) (kochia (Kochia scoparia) [18]; 125 g ai/ha): 30
2 | CN1C[C@H](c2ccc(C(F)(F)F)cc2)[C@@H](C(=O)Nc2cccc(F)c2F)C1=NN1CCOCC1 (relative stereo) [Compound 7] | 0 | 0 | 0 | 50 | 45 | 0 | 0 | 0 | 0 | 60 | 0 | 10 | 0 | 0 | 0 | 0 | 50 | 60 | 70 | 0 | Plant response rating (0 to 100 scale, 0 is no effect, 100 is complete control) (kochia (Kochia scoparia) [10]; 125 g ai/ha): 60; Plant response rating (scale of 0 to 100, 0 is no effect, 100 is complete control) [11]: 10; Plant response rating (0 to 100 scale, 0 is no effect, 100 is complete control) ([12]; 31 g ai/ha): 0; Plant response rating (0 to 100 scale, 0 is no effect, 100 is complete control) ([12]; 125 g ai/ha): 50; Plant response rating (0 to 100 scale, 0 is no effect, 100 is complete control) ([13]; 31 g ai/ha): 30; Plant response rating (0 to 100 scale, 0 is no effect, 100 is complete control) ([13]; 125 g ai/ha): 30; Plant response rating (0 to 100 scale, 0 is no effect, 100 is complete control) (Foxtail, Giant [14]; 31 g ai/ha): 50; Plant response rating (0 to 100 scale, 0 is no effect, 100 is complete control) (Foxtail, Giant [14]; 125 g ai/ha): 90; Plant response rating (0 to 100 scale, 0 is no effect, 100 is complete control) ([15]; 31 g ai/ha): 10; Plant response rating (0 to 100 scale, 0 is no effect, 100 is complete control) ([15]; 125 g ai/ha): 50; Plant response rating (0 to 100 scale, 0 is no effect, 100 is complete control) ([16]; 31 g ai/ha): 10; Plant response rating (0 to 100 scale, 0 is no effect, 100 is complete control) ([16]; 125 g ai/ha): 30; Plant response rating (0 to 100 scale, 0 is no effect, 100 is complete control) ([17]; 31 g ai/ha): 0; Plant response rating (0 to 100 scale, 0 is no effect, 100 is complete control) ([17]; 125 g ai/ha): 10; Plant response rating (0 to 100 scale, 0 is no effect, 100 is complete control) (kochia (Kochia scoparia) [18]; 31 g ai/ha): 0; Plant response rating (0 to 100 scale, 0 is no effect, 100 is complete control) (kochia (Kochia scoparia) [18]; 125 g ai/ha): 20
3 | CC(=O)NN=C1[C@H](C(=O)Nc2cccc(F)c2F)[C@@H](c2ccc(C(F)(F)F)cc2)CN1C (relative stereo) [Compound 5] | 0 | 40 | 70 | 80 | 65 | 0 | 20 | 90 | 30 | 80 | 70 | 80 | 0 | 70 | 0 | 0 | 0 | 70 | 80 | 20 | Plant response rating (0 to 100 scale, 0 is no effect, 100 is complete control) (kochia (Kochia scoparia) [10]; 125 g ai/ha): 30; Plant response rating (scale of 0 to 100, 0 is no effect, 100 is complete control) [11]: 45; Plant response rating (0 to 100 scale, 0 is no effect, 100 is complete control) ([12]; 31 g ai/ha): 60; Plant response rating (0 to 100 scale, 0 is no effect, 100 is complete control) ([12]; 125 g ai/ha): 80; Plant response rating (0 to 100 scale, 0 is no effect, 100 is complete control) ([13]; 31 g ai/ha): 60; Plant response rating (0 to 100 scale, 0 is no effect, 100 is complete control) ([13]; 125 g ai/ha): 80; Plant response rating (0 to 100 scale, 0 is no effect, 100 is complete control) (Foxtail, Giant [14]; 31 g ai/ha): 90; Plant response rating (0 to 100 scale, 0 is no effect, 100 is complete control) (Foxtail, Giant [14]; 125 g ai/ha): 90; Plant response rating (0 to 100 scale, 0 is no effect, 100 is complete control) ([15]; 31 g ai/ha): 90; Plant response rating (0 to 100 scale, 0 is no effect, 100 is complete control) ([15]; 125 g ai/ha): 90; Plant response rating (0 to 100 scale, 0 is no effect, 100 is complete control) ([16]; 31 g ai/ha): 10; Plant response rating (0 to 100 scale, 0 is no effect, 100 is complete control) ([16]; 125 g ai/ha): 80; Plant response rating (0 to 100 scale, 0 is no effect, 100 is complete control) ([17]; 31 g ai/ha): 0; Plant response rating (0 to 100 scale, 0 is no effect, 100 is complete control) ([17]; 125 g ai/ha): 50; Plant response rating (0 to 100 scale, 0 is no effect, 100 is complete control) (kochia (Kochia scoparia) [18]; 31 g ai/ha): 10; Plant response rating (0 to 100 scale, 0 is no effect, 100 is complete control) (kochia (Kochia scoparia) [18]; 125 g ai/ha): 90
